target: T1, recombinant human mPGES-1 (Homo sapiens, UniProt O14684); assay: mPGES-1 inhibition, HTRF detection of PGE2; assay type: biochemical
T1 construct: made in house; host or cells: Rosetta E. coli (microsomal/membrane fraction)
T1 sequence (O14684 1-152): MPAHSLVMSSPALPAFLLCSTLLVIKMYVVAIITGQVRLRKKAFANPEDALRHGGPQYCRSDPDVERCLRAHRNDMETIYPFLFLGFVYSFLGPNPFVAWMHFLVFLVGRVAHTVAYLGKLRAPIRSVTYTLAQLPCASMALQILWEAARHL
In short: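 Microsomes from E. coli expressing recombinant human mPGES-1 in 0.1 M KPi pH 7.4 with 2.5 mM GSH were preincubated with inhibitor 25 min at room temperature. PGH2 was then added, and the reaction was stopped after 1 min with acidified FeCl2. PGE2 was quantified by HTRF (665/620 nm ratio) against a synthetic PGE2 standard curve.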

Row | SMILES | inhibition at 10 µM [%] | inhibition at 1 µM [%]
1 | O=C(NCC(F)(F)C(F)(F)C(F)(F)C(F)(F)F)c1cc2nc(Nc3c(Cl)cc(F)cc3Cl)[nH]c2nc1OCC(F)(F)F [Example 829, 2-(2,6-Dichloro-4-fluoro-phenylamino)-5-(2,2,2-trifluoro-ethoxy)-N-(2,2,3,3,4,4,5,5,5-nonafluoropentyl)-3H-imidazo[4,5-b]pyridine-6-carboxamide] | 100 | 
2 | CC1(C)CCC(NC(=O)c2cnc3c(c2)nc(Nc2c(Cl)cccc2Cl)n3Cc2ccccc2)CC1 [Example 413, 3-Benzyl-2-(2,6-dichlorophenylamino)-N-(4,4-dimethylcyclohexyl)-3H-imidazo[4,5-b]pyridine-6-carboxamide] | 100 | 
3 | Cn1c(Nc2c(F)cccc2Cl)nc2cc(C(=O)N[C@H]3CC[C@H](C)CC3)cnc21 [Example 486, 2-(2-Chloro-6-fluorophenylamino)-3-methyl-N-((1r,4r)-4-methycyclohexyl)-3H-imidazo[4,5-b]pyridine-6-carboxamide] | 100 | 
4 | COCCOc1nc2[nH]c(Nc3c(Cl)cncc3Cl)nc2cc1C(=O)NCC(F)(F)C(F)(F)C(F)(F)C(F)(F)F [Example 802, 2-(3,5-Dichloro-pyridin-4-ylamino)-5-(2-methoxy-ethoxy)-N-(2,2,3,3,4,4,5,5,5-nonafluoro-pentyl)-3H-imidazo[4,5-b]pyridine-6-carboxamide] | 96 | 
5 | Cn1c(Nc2c(F)cccc2Cl)nc2cc(C(=O)Nc3ccc(Br)cc3)c(OCC(F)F)nc21 [Example 773, N-(4-Bromo-phenyl)-2-(2-fluoro-6-chloro-phenylamino)-5-(2,2-difluoroethoxy)-3-methyl-3H-imidazo[4,5-b]pyridine-6-carboxamide] |  | 100
6 | Cn1c(Nc2c(Cl)cc(F)cc2Cl)nc2cc(C(=O)NCC(F)(F)C(F)(F)C(F)(F)C(F)(F)F)c(OCC(F)F)nc21 [Example 872, 2-(2,6-Dichloro-4-fluoro-phenylamino)-5-(2,2-difluoro-ethoxy)-N-(2,2,3,3,4,4,5,5,5-nonafluoropentyl)-3-methyl-3H-imidazo[4,5-b]pyridine-6-carboxamide] | 100 | 
7 | CCCCCCCNC(=O)c1cnc2c(c1)nc(Nc1c(Cl)cccc1Cl)n2C [Example 448, 2-(2,6-Dichlorophenylamino)-N-heptyl-3-methyl-3H-imidazo[4,5-b]pyridine-6-carboxamide] | 100 | 
8 | Cn1c(Nc2c(Cl)cncc2Cl)nc2cc(C(=O)NCC(F)(F)C(F)(F)C(F)(F)C(F)(F)F)c(OCCF)nc21 [Example 834, 2-(3,5-Dichloro-pyridin-4-ylamino)-5-(2-fluoro-ethoxy)-N-(2,2,3,3,4,4,5,5,5-nonafluoropentyl)-3-methyl-3H-imidazo[4,5-b]pyridine-6-carboxamide] | 99 | 
9 | O=C(NCC(F)(F)C(F)(F)C(F)(F)C(F)(F)F)c1cc2nc(Nc3c(Cl)cc(F)cc3Cl)[nH]c2nc1OCC(F)F [Example 825, 2-(2,6-Dichloro-4-fluoro-phenylamino)-5-(2,2-difluoro-ethoxy)-N-(2,2,3,3,4,4,5,5,5-nonafluoropentyl)-3H-imidazo[4,5-b]pyridine-6-carboxamide] | 98 | 
10 | Cn1c(Nc2c(Cl)cccc2Cl)nc2cc(C(=O)NC3CCCC(C)(C)C3)cnc21 (stereo not shown) [Example 454, 2-(2,6-Dichlorophenylamino)-N-(3,3-dimethylcyclohexyl)-3-methyl-3H-imidazo[4,5-b]pyridine-6-carboxamide] | 99 | 
11 | CCCCC[C@@H](C)NC(=O)c1cnc2c(c1)nc(Nc1c(Cl)cccc1Cl)n2C [Example 449, (R)-2-(2,6-Dichlorophenylamino)-N-(hept-2-yl)-3-methyl-3H-imidazo[4,5-b]pyridine-6-carboxamide] | 98 | 
12 | Cn1c(Nc2c(Cl)cccc2Cl)nc2cc(C(=O)N[C@H]3CC[C@H](C(F)(F)F)CC3)cnc21 [Example 174, 2-(2,6-Dichloro-phenylamino)-3-methyl-3H-imidazo[4,5-b]pyridine-6-carboxylic acid (trans-4-trifluoromethyl-cyclohexyl)-amide] | 99 | 
13 | O=C(Nc1ccc(Br)cc1)c1cc2nc(Nc3ccccc3C(F)(F)F)[nH]c2nc1OCC(F)F [Example 775, N-(4-Bromo-phenyl)-2-(2-trifluoromethyl-phenylamino)-5-(2,2-difluoroethoxy)-3H-imidazo[4,5-b]pyridine-6-carboxamide] |  | 95
14 | CCCCCCNC(=O)c1cnc2c(c1)nc(Nc1c(Cl)cccc1Cl)n2C [Example 439, 2-(2,6-Dichlorophenylamino)-N-hexyl-3-methyl-3H-imidazo[4,5-b]pyridine-6-carboxamide] | 91 | 

Results, then the compound that gave them:

Row | inhibition at 10 µM [%] | inhibition at 1 µM [%] | SMILES
15 | 100 |  | Cn1c(Nc2c(Cl)cncc2Cl)nc2cc(C(=O)Nc3cc(C(F)(F)F)ccn3)c(OCC(F)F)nc21 [Example 836, 2-(3,5-Dichloro-pyridin-4-ylamino)-5-(2,2-difluoro-ethoxy)-N-(4-trifluoromethyl-pyridin-2-yl)-3-methyl-3H-imidazo[4,5-b]pyridine-6-carboxamide]
16 | 97 |  | Cn1c(Nc2c(Cl)cc(F)cc2Cl)nc2cc(C(=O)N[C@H]3CC[C@H](C(F)(F)F)CC3)c(OCC(F)(F)F)nc21 [Example 814, 2-(2,6-Dichloro-4-fluoro-phenylamino)-5-(2,2,2-trifluoro-ethoxy)-N-(trans-4-trifluoromethyl-cyclohexyl)-3-methyl-3H-imidazo[4,5-b]pyridine-6-carboxamide]
17 | 96 |  | O=C(Nc1cc(C(F)(F)F)ccn1)c1cc2nc(Nc3c(Cl)cc(F)cc3Cl)[nH]c2nc1OCC(F)(F)F [Example 819, 2-(2,6-Dichloro-4-fluoro-phenylamino)-5-(2,2,2-trifluoro-ethoxy)-N-(4-trifluoromethyl-pyridin-2-yl)-3H-imidazo[4,5-b]pyridine-6-carboxamide]
18 | 100 |  | COCCOc1nc2[nH]c(Nc3c(Cl)cncc3Cl)nc2cc1C(=O)N[C@H]1CC[C@H](C(F)(F)F)CC1 [Example 866, 2-(3,5-Dichloro-pyridin-4-ylamino)-5-(2-methoxy-ethoxy)-N-(trans-4-trifluoromethyl-cyclohexyl)-3H-imidazo[4,5-b]pyridine-6-carboxamide]
19 | 100 |  | Cn1c(Nc2c(Cl)cncc2Cl)nc2cc(C(=O)Nc3cc(C(F)(F)F)ccn3)c(OCCF)nc21 [Example 831, 2-(3,5-Dichloro-pyridin-4-ylamino)-5-(2-fluoro-ethoxy)-N-(4-trifluoromethyl-pyridin-2-yl)-3-methyl-3H-imidazo[4,5-b]pyridine-6-carboxamide]
20 |  | 100 | O=C(Nc1ccc(Br)cc1)c1cc2nc(Nc3c(F)cccc3Cl)[nH]c2nc1OCC(F)F [Example 776, N-(4-Bromo-phenyl)-2-(2-fluoro-6-chloro-phenylamino)-5-(2,2-difluoroethoxy)-3H-imidazo[4,5-b]pyridine-6-carboxamide]
21 | 96 |  | Cn1c(Nc2c(Cl)cc(F)cc2Cl)nc2cc(C(=O)Nc3cc(C(F)(F)F)ccn3)c(OCC(F)F)nc21 [Example 817, 2-(2,6-Dichloro-4-fluoro-phenylamino)-5-(2,2-difluoro-ethoxy)-N-(4-trifluoromethyl-pyridin-2-yl)-3-methyl-3H-imidazo[4,5-b]pyridine-6-carboxamide]
22 | 98 |  | Cn1c(Nc2c(Cl)ccc(Cl)c2F)nc2cc(C(=O)N[C@H]3CC[C@H](C(F)(F)F)CC3)c(OCC(F)F)nc21 [Example 787, 2-(3,6-Dichloro-2-fluoro-phenylamino)-5-(2,2-difluoro-ethoxy)-N-(trans-4-trifluoromethyl-cyclohexyl)-3-methyl-3H-imidazo[4,5-b]pyridine-6-carboxamide]
23 | 100 |  | COc1nc2c(cc1C(=O)NCc1ccccc1C(F)(F)F)nc(Nc1c(Cl)cccc1Cl)n2C [Example 861, 2-(2,6-Dichloro-phenylamino)-5-methoxy-N-(2-trifluoromethyl-benzyl)-3-methyl-3H-imidazo[4,5-b]pyridine-6-carboxamide]
24 | 99 |  | O=C(Nc1cc(C(F)(F)F)ccn1)c1cc2nc(Nc3c(Cl)cncc3Cl)[nH]c2nc1OCC(F)(F)F [Example 857, 2-(3,5-Dichloro-pyridin-4-ylamino)-5-(2,2,2-trifluoro-ethoxy)-N-(4-trifluoromethyl-pyridin-2-yl)-3H-imidazo[4,5-b]pyridine-6-carboxamide]
25 | 87 |  | O=C(N[C@H]1CC[C@H](C(F)(F)F)CC1)c1cc2nc(Nc3cccnc3C(F)(F)F)[nH]c2nc1OCC(F)F [Example 798, 2-(2-Trifluoromethyl-pyridin-3-ylamino)-5-(2,2-difluoro-ethoxy)-N-(trans-4-trifluoromethyl-cyclohexyl)-3H-imidazo[4,5-b]pyridine-6-carboxamide]
26 |  | 98 | O=C(N[C@H]1CC[C@H](C(F)(F)F)CC1)c1cc2nc(Nc3c(Cl)cccc3C(F)(F)F)[nH]c2nc1OCC(F)F [Example 778, 2-(2-Chloro-6-trifluoromethyl-phenylamino)-5-(2,2-difluoro-ethoxy)-N-(trans-4-trifluoromethyl-cyclohexyl)-3H-imidazo[4,5-b]pyridine-6-carboxamide]
27 | 97 |  | COCCOc1nc2c(cc1C(=O)Nc1ccc(Br)cc1)nc(Nc1c(Cl)cncc1Cl)n2C [Example 812, 2-(3,5-Dichloro-pyridin-4-ylamino)-5-(2-methoxy-ethoxy)-N-(4-bromo-phenyl)-3-methyl-3H-imidazo[4,5-b]pyridine-6-carboxamide]
28 | 97 |  | Cn1c(Nc2c(Cl)cc(F)cc2Cl)nc2cc(C(=O)Nc3ccc(Br)cc3)c(OCC(F)(F)F)nc21 [Example 816, 2-(2,6-Dichloro-4-fluoro-phenylamino)-5-(2,2,2-trifluoro-ethoxy)-N-(4-bromo-phenyl)-3-methyl-3H-imidazo[4,5-b]pyridine-6-carboxamide]
